# Experimental data published in patent US20090304661A1, “Method And Composition For Proctecting Neuronal Tissue From Damage Induced By Elevated Glutamate Levels” (Yeda Research And Development Co. Ltd. at the Weizmann …, priority 2006, published 2009).
# Assays:
# [1] = target: E. coli GOT (GenBank Accession No. D90731.1) (Escherichia coli, UniProt P00509); conditions: cited from earlier work
# [2] = tested on: Glu in rat brain striatum; assay: Dual-probe microdialysis of Glu in rat brain striatum; format: in vivo
# Description: Glu (1M) was continuously perfused at a rate of 2 μl/min from the delivery probe while perfusing artificial CSF at the same rate of 2 μl/min through the recovery probe for the entire duration of the experiments. […] Microdialysis of 1M Glu along with an intravenous Glu injection performed at t=100 min for 30 min (30 μmoles/min/100 g).
# Artificial CSF was perfused at a rate of 2 μl/min through the two probes for a duration of 60 min. A 1 M solution of glutamate was then perfused through the delivery probe, at a rate of 2 μl/min for the entire duration of the experiment while perfusing artificial CSF at the same rate of 2 μl/min through a recovery probe, located at 1 mm from the delivery probe. Aliqouots of 40 μl were collected from the recovery probe every 20 min. The recovered Glu was measured using a spectrofluorometric assay (see below).
# A 20 μl aliquot from microdialysate was added to 480 μl HG buffer containing 15 U of Glu dehydrogenase in 0.2 mM NAD, 0.3M glycine, 0.25 M hydrazine hydrate adjusted to pH 8.6 with 1N H2SO4. […] A Glu standard curve was established with concentrations ranging from 0-6 μM. All determinations were done at least in duplicates. The results are expressed as mean.+−SD.
# The dual-probe brain microdialysis was used and perfused through the delivery probe inserted in the striatum of anesthetized rats a Glu solution while simultaneously perfusing artificial CSF through a recovery probe, located at 1 mm distance.
# [3] = tested on: traumatic brain injury (TBI); assay: Neurological severity score (NSS) after traumatic brain injury; format: in vivo, rat; conditions: for spontaneous partial recovery of rats submitted to TBI: summary statement
# Description: FIGS. 3A-C are graphs showing the effects of stress on the spontaneous recovery from traumatic brain injury. FIG. 3A illustrates TBI protocol and times of neurological severity score (NSS) assessment and removal of blood samples (asterisks) FIG. 4B is a histogram showing the effects of propranolol (10 mg/kg i.p) on the spontaneous recovery of rats submitted to TBI. Propranolol was injected 60 min before the infliction of TBI. The neurological severity scores were measured at 1 and 24 hours following TBI. The scores shown on the ordinate correspond to NSS averages+/−standard error of the mean. Control (n=33); propranolol (n=8). […] Propranolol was injected at a dose of 10 mg/kg i.p. 60 min before the infliction of TBI.
# Animal anesthesia and well being—Experiments were conducted according to the recommendations of the Declarations of Helsinki and Tokyo and to the Guidelines for the Use of Experimental Animals of the European Community. The experiments were approved by the Animal Care Committees of Ben-Gurion University of the Negev and of the Weizmann Institute. Spontaneously breathing male Sprague Dawley rats weighing 200-300 g were anesthetized with a mixture of isoflurane (initial inspired concentration 2%) in 100% oxygen (1l/min). The rectal temperature was maintained at 37° C. using a heating pad and anesthesia was considered as sufficient for surgery when tail reflex was abolished. Catherization of the tail vein was carried out with a BD Neoflon 24 g catheter for allowing fluid infusion. Catherization of the tail artery was performed to allow blood sampling and determination of blood pressure and heart rate.
# blood Glu levels [4] = assay: Blood Glu levels following traumatic brain injury; format: in vivo, rat
# Description: FIGS. 3A-C are graphs showing the effects of stress on the spontaneous recovery from traumatic brain injury. FIG. 3A illustrates TBI protocol and times of neurological severity score (NSS) assessment and removal of blood samples (asterisks) […] is a histogram showing the effects of propranolol (10 mg/kg i.p) on the spontaneous recovery of rats submitted to TBI. Propranolol was injected 60 min before the infliction of TBI. The neurological severity scores were measured at 1 and 24 hours following TBI. The scores shown on the ordinate correspond to NSS averages+/−standard error of the mean. Control (n=33); propranolol (n=8). Bonferroni's multiple comparison tests: saline 1 h vs saline 24 h p<0.001; saline 1 h vs propranolol pretreatment p>0.05; saline 1 h vs propranolol post-TBI p<0.001. FIG. 3C is a graph showing the effects of propranolol on the blood Glu (rectangles) and glucose (triangles) levels of rats submitted to TBI (n=8). Propranolol was injected at a dose of 10 mg/kg i.p. 60 min before the infliction of TBI. Glu and glucose levels were measured at 1, 60, 120 and 150 min following TBI. Glu levels were normalized to the value at t=1 min.;
# FIGS. 4A-C are graphs depicting the effects of a blood Glu scavenger and of Glu on the recovery from TBI. Rats were injected intravenously for a total duration of 30 min (as in FIG. 3A) either with saline (30 μl/min/100 g), OxAc (30 μmoles/min/100 g) or OxAc+Glu (30 μmoles/min/100 g each). Twenty four and forty eight hours later, rats were submitted to various tests to establish the NSS. The scores shown above each column correspond to NSS averages with bars indicating the standard error of the mean. FIG. 4A—The groups from left to right are as follows: control saline (n=33) at 1 hour and 24 h; OxAc (n=32); Glu (n=32); OxAc+Glu (n=17) at 24 h and 48 h; One way ANOVA and Bonferroni multiple comparison tests: At 24 h: saline versus OxAc: p<0.05; saline versus Glu: p<0.01; Glu versus OxAc: p<0.001; saline versus OxAc+Glu: p>0.05. […] Glu levels are expressed as the percent of the basal Glu levels measured before TBI. […] Paired t test: 0 versus 60 min saline p=5.10^−4; 0 versus 60 min OxAc p=0.10^−4; 60 min versus 75 min saline: p=0.59; 60 min versus 75 min OxAc: p=3.10^−3; 75 min versus 90 min saline: p=0.89; 75 min versus 90 min OxAc: p=2.10^−4; C: Time course of the recovery from TBI in saline (n=7) and OxAc-treated (n=7) rats as monitored by NSS values presented here as mean±standard deviation. […]
# Glu spectrofluorometric assay—Glu concentration was measured using the fluorometric method of Graham and Aprison. […] After incubation for 30-45 min at room temperature, the fluorescence was measured at 460 nm with excitation at 350 nm. […] The results are expressed as mean.+−SD. […]
# [5] = Blood osmolality and Na content before and after treatment; format: in vivo, rat; conditions: OxAc group
# Description: This beneficial effect was not observed in the other groups for which the treatment includes the intravenous administration of Glu (data not shown). Since OxAc could act on brain edema as an osmotic agent, both the blood osmolality and Na content were measured before and after the 30 min-long treatments with OxAc or saline. There was no change in the saline group (303±3.5 mOsm (pre-treatment) vs 299±3 mOsm (post-treatment); Na: 140±1 meq/l vs 141±0.8 meq/l) but a very significant increase in the OxAc-group: (301±5 mOsm vs 338±8 mOsm; Na: 139±1 meq/l vs 164±3.4 meq/l). The hypernatriema and hyperosmolarity in the OxAc-treated rats can be accounted by the fact that OxAc is administered together with 2 Na equivalents. To determine that the NSS improvement and edema reduction in the OxAc-treated rats were not due to an osmotic “therapy”, rats were submitted after TBI to a hypertonic (3% NaCl) saline treatment. As the respective NSS values obtained at 60 min and 24 h post TBI were 15.6±3.6 and 12.4±5.3 (n=7; p=0.16), it was concluded that the beneficial effects of OxAc are not the result of an osmotic therapy.
# blood Glu levels [6] = assay: Blood Glu levels in rats after stress hormones, agonists and antagonists; format: in vivo, rat; conditions: for effect on blood Glu levels: cortisol 25 mg/kg intraperitoneally, noradrenaline intravenously 30 min at 2 μg/100 g/min
# Description: FIGS. 2A-B are line graphs showing the effects of stress hormones and stress on blood glutamate and glucose levels. A: Cortisol (25 mg/kg) was injected intraperitoneally (triangles). Noradrenaline was infused intravenously for 30 min at 2 μg/100 g/min and 1 ml/100 g (rectangles). Adrenaline was infused intravenously for 30 min at […] and 1 ml/100 g (diamonds). The data presented are normalized to the respective basal blood values and shown as mean±standard deviation (n=3). B: Effects of an intracranial insertion of a microdialysis probe (without any fluid perfusion) on blood Glu (diamonds) and glucose (rectangles) levels. The data presented are normalized to the respective basal blood values and shown as mean±standard deviation (n=4);
# The rats NSS were measured after 24 and 48 h The results are presented as mean±standard deviation; and
# FIG. 8 is a graph showing the effect of an alpha 1 agonist, phenylephrine on blood Glu levels. Phenylephrine was infused intravenously for 30 min into rats (n=4) at a rate 0.25 mg/0.5 ml/100 g/30 min and the levels of blood Glu were determined at time=0 and every subsequent 30 min until 120 min. The results are presented as mean±standard deviation.
# Glu spectrofluorometric assay—Glu concentration was measured using the fluorometric method of Graham and Aprison. A 20 μl aliquot from microdialysate was added to 480 μl HG buffer containing 15 U of Glu dehydrogenase in 0.2 mM NAD, 0.3M glycine, 0.25 M hydrazine hydrate adjusted to pH 8.6 with 1N H2SO4. After incubation for 30-45 min at room temperature, the fluorescence was measured at 460 nm with excitation at 350 nm. A Glu standard curve was established with concentrations ranging from 0-6 μM. All determinations were done at least in duplicates. The results are expressed as mean.+−SD.
# Determination of Blood/plasma Glu—Whole blood (200 μl aliquot) were deproteinized by adding an equal volume of ice-cold 1 M perchloric acid (PCA) and then centrifuging at 10000×g for 10 min at 4° C. The pellet was discarded and supernatant collected, adjusted to pH 7.2 with 2M K2CO3 and, if needed, stored at −80° C. for later analysis using the above-described assay.
# The rats NSS were measured after 24 and 48 h.
# Phenylephrine was infused intravenously for 30 min into rats (n=4) at a rate 0.25 mg/0.5 ml/100 g/30 min and the levels of blood Glu were determined at time=0 and every subsequent 30 min until 120 min.
# blood glucose levels = assay: Blood glucose levels following traumatic brain injury; format: in vivo, rat; conditions: propranolol 10 mg/kg i.p. 60 min before TBI
# Description: FIGS. 3A-C are graphs showing the effects of stress on the spontaneous recovery from traumatic brain injury. FIG. 3A illustrates TBI protocol and times of neurological severity score (NSS) assessment and removal of blood samples (asterisks) […] is a histogram showing the effects of propranolol (10 mg/kg i.p) on the spontaneous recovery of rats submitted to TBI. Propranolol was injected 60 min before the infliction of TBI. The neurological severity scores were measured at 1 and 24 hours following TBI. The scores shown on the ordinate correspond to NSS averages+/−standard error of the mean. Control (n=33); propranolol (n=8). […] Glu and glucose levels were measured at 1, 60, 120 and 150 min following TBI. […]
# Animal anesthesia and well being—Experiments were conducted according to the recommendations of the Declarations of Helsinki and Tokyo and to the Guidelines for the Use of Experimental Animals of the European Community. […] Blood samples were analyzed for pH, pO2, pCO2, HCO3^−3. Glucose levels were measured with Accu-Chek sensor comfort. […] Following TBI, all rats were laid on their left side in order to recover from anesthesia and to check righting reflex and recovery time as part of the assessment of NSS which was evaluated 1 h after TBI (see below).
# [7] = baseline before 30 min-long treatment
# Chain of E. coli GOT (GenBank Accession No. D90731.1) (P00509 whole entry): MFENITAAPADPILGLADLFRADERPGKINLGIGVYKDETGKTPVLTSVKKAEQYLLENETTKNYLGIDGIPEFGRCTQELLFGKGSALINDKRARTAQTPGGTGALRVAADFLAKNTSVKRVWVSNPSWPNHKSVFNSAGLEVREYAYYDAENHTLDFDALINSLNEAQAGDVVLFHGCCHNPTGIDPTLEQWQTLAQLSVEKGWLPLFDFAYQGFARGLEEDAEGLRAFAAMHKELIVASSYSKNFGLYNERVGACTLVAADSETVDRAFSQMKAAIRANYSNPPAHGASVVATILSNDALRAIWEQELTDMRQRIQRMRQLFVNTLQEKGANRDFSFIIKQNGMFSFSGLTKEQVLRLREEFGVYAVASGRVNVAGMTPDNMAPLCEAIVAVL
smiles,measurement,setting,value
O=C(O)CCC(=O)C(=O)O [2-ketoglutarate],affinity of E. coli GOT for the substance,[1],about 0.2 mM
"N[C@@H](CCC(=O)O)C(=O)O [Glu, L-glutamic acid]",amounts of Glu reaching the recovery probe,"[2]; 1M Glu perfused, intravenous Glu at t=100 min for 30 min, 30 μmoles/min/100 g",significantly more Glu reaches the recovery probe
same,recovery from TBI (NSS at 24 h and 48 h),"[3]; intravenous 30 min, 30 μmoles/min/100 g (each), after TBI",recovered the least
same,spontaneous partial recovery of rats submitted to TBI,[3],prevented
same,affinity of E. coli GOT for the substance,[1],about 8 mM
"O=C(O)CC(=O)C(=O)O [OxAc, oxaloacetate]",further reduction of the amounts of Glu reaching the recovery probe,"[2]; 1M Glu perfused, intravenous OxAc at t=110 min for 30 min, 30 μmoles/min/100 g",up to 50 % of the peak value
same,blood Glu levels after TBI,"blood Glu levels [4]; intravenous OxAc 30 μmoles/min/100 g, 60-90 min after TBI, relative to basal Glu before TBI",40%
same,duration of decrease of blood Glu after TBI,blood Glu levels [4]; stress- and OxAc-induced decreases,at least 90 min
same,"blood Na content, post-treatment",[5]; after 30 min-long treatment,164±3.4 meq/l
same,"blood osmolality, post-treatment",[5]; after 30 min-long treatment,338±8 mOsm
same,"blood Na content, pre-treatment",[5]; [7],139±1 meq/l
same,"blood osmolality, pre-treatment",[5]; [7],301±5 mOsm
C[C@]12CCC(=O)C=C1CC[C@@H]1[C@@H]2[C@@H](O)C[C@@]2(C)[C@H]1CC[C@]2(O)C(=O)CO [cortisol],effect on blood Glu levels,blood Glu levels [6],neither cortisol nor noradrenaline affected blood Glu levels
COCCc1ccc(OCC(O)CNC(C)C)cc1 (stereo not drawn) [metaprolol],effect on the reduction of blood Glu levels,"blood Glu levels [6]; metaprolol 15 mg/kg, naive rats",strong effect
same,reduction of in vivo rat blood glutamate,"blood Glu levels [6]; metaprolol 15 mg/kg, naive rats, followed to 120 min",40%
NC[C@H](O)c1ccc(O)c(O)c1 [noradrenaline],effect on blood Glu levels,blood Glu levels [6],neither cortisol nor noradrenaline affected blood Glu levels
CNC[C@H](O)c1cccc(O)c1 [phenylephrine],reduction of blood basal glutamate levels,blood Glu levels [6]; injected intravenously at 0.1 mg/100 gr rat body-weight/30 min,40%
CC(C)NCC(O)COc1cccc2ccccc12 (stereo not drawn) [propranolol],effect on Glu dual-probe microdialysis profile,"[2]; propranolol pretreatment, data not shown",did not affect
same,spontaneous NSS improvement at 24 h,[3]; propranolol 10 mg/kg i.p. 1 hour before TBI,prevented the spontaneous NSS improvement
same,NSS improvement,[3]; propranolol administration delayed by 60 min after TBI,caused the same NSS improvement as that found after saline treatment
same,spontaneous partial recovery of rats submitted to TBI,[3],prevented
same,stress-induced changes of blood Glu levels,blood Glu levels [4]; propranolol 10 mg/kg i.p. 60 min before TBI,prevented for at least 150 min the stress-induced changes of blood Glu and glucose levels
same,effect on blood glutamate levels,"blood Glu levels [4]; propranolol, rats submitted to TBI (FIGS. 3A-C)",practically no effect
same,stress-induced changes of blood glucose levels,blood glucose levels,prevented for at least 150 min the stress-induced changes of blood Glu and glucose levels
